Measurements: ChEMBL document CHEMBL1201862, “PubChem BioAssay data set” (2004)
Activity calls are given as the source filed them. Rule as the data show it, for most assays here: actives have a measured IC50 and inactives only a lower limit.

Experiments:
[1] = molecular target: T1, Insulin-degrading enzyme (Homo sapiens, UniProt P14735); assay: recombinant IDE activation, cell-free – biochemical, fluorescence polarization, counter-screen for IDE activator project, dose response (AID 588681)
T1 sequence (P14735 whole entry): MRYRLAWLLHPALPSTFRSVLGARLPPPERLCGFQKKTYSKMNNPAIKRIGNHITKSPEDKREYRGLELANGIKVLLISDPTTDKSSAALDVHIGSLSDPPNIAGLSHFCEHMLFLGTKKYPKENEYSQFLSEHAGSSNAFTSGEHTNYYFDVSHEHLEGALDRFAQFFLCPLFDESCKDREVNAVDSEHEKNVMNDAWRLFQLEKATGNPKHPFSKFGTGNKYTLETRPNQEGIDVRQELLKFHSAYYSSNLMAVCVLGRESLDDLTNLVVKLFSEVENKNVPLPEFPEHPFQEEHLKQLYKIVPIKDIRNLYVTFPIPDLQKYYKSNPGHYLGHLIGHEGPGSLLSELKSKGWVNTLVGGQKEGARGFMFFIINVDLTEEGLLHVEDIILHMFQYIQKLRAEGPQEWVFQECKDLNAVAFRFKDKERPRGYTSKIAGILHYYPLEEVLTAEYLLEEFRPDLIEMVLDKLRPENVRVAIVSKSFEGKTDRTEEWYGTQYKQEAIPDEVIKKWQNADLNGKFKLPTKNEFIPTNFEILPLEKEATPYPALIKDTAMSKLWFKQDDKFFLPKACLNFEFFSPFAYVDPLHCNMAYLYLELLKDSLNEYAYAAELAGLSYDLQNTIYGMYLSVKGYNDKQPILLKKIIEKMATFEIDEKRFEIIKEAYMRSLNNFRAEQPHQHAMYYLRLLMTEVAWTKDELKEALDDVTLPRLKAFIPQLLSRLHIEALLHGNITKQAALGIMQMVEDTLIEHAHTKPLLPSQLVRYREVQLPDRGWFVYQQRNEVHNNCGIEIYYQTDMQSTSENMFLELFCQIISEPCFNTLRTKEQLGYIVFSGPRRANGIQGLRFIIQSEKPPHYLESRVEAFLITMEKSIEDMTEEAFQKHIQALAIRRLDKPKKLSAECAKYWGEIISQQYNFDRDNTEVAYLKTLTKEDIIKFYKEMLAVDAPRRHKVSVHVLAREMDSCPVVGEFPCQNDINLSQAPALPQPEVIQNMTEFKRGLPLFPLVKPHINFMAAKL

[2] = molecular target: T1, Insulin-degrading enzyme; assay: cellular IDE activation of Abeta substrate cleavage – fluorescence polarization, HEK cells, dose response (AID 588439); assay type: functional, cell-based
[3] = tested on: HEK293; assay: membrane integrity loss in HEK cells – cell-based, fluorescence, cytotoxicity control for IDE activator project, dose response (AID 588440); assay type: functional; settings: Homo sapiens;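 also: cytotoxicity by LDH release measuring loss of membrane integrity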
[4] = tested on: HEK293; assay: optical interference in Abeta FP readout, dose response, artefact control for IDE activator project, biochemical, fluorescence polarization (AID 588442); assay type: functional, cell-based; settings: Homo sapiens
[5] = molecular target: Luciferin 4-monooxygenase (Photinus pyralis, UniProt P08659); assay: Counter Screen for Luciferase-based Assay Positives. [Related pubchem assays: 620, 618, 411 ]
Sequence of Luciferin 4-monooxygenase (P08659 whole entry): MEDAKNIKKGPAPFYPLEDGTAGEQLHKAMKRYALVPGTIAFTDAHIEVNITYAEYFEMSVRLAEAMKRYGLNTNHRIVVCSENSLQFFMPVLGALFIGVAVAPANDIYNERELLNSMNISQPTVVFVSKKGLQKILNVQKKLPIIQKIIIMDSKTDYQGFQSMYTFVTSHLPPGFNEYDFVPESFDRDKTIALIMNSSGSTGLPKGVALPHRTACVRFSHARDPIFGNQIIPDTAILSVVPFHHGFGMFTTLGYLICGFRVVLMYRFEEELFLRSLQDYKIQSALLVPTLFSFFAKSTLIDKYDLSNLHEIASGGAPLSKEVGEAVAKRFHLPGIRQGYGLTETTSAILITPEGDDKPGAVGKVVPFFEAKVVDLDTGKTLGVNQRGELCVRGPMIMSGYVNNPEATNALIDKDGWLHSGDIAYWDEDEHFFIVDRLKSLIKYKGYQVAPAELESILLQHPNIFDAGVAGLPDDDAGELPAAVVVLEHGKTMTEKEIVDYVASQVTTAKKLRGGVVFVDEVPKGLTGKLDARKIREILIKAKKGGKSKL

[6] = molecular target: T2, Heat shock factor protein 1 (Mus musculus, UniProt P38532); assay: decrease of HSF1-responsive luciferase luminescence – cell-based, NIH3T3, dose retest, confirmation (AID 2382); assay type: functional;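 also: NIH3T3 fibroblasts with HSF1-driven luciferase reporter stressed by proteasome inhibitor MG132; luminescence from HSF1-driven luciferase expression after 8 hours of MG132 stress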
T2 sequence (P38532 whole entry): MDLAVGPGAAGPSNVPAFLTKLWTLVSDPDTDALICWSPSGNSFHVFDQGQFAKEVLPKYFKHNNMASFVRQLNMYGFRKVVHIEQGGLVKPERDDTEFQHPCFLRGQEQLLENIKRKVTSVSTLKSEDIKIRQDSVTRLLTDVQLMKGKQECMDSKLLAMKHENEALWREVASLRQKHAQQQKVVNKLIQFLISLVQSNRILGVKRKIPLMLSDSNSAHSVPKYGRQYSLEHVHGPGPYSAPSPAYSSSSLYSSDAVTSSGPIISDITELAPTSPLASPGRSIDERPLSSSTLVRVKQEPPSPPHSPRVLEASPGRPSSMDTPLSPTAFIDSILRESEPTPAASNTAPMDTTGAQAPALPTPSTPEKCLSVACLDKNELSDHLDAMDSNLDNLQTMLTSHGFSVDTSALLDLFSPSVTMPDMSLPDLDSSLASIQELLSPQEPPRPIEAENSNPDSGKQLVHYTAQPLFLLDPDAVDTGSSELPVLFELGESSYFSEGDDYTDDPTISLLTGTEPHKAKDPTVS

[7] = tested on: HT-1080; assay: HT1080 cell viability loss – fluorescence readout (AID 620); assay type: functional, cell-based; settings: Homo sapiens
[8] = molecular target: T3, Caspase-3 (Homo sapiens, UniProt P42574); assay type: functional
T3 sequence (P42574 whole entry): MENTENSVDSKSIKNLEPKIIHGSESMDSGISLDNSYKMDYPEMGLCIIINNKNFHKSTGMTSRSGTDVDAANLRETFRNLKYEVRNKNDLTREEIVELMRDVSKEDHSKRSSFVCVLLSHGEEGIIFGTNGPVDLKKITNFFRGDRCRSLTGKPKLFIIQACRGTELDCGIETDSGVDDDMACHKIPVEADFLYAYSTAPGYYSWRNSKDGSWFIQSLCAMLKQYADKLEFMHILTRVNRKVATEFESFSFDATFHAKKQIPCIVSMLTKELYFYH

[9] = molecular target: T4, Sentrin-specific protease 7 (Homo sapiens, UniProt Q9BQF6); assay type: functional;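 also: Luminescence-based dose-response confirmation of ultra-high-throughput screening hits, measuring inhibition of SENP7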
T4 sequence (Q9BQF6 whole entry): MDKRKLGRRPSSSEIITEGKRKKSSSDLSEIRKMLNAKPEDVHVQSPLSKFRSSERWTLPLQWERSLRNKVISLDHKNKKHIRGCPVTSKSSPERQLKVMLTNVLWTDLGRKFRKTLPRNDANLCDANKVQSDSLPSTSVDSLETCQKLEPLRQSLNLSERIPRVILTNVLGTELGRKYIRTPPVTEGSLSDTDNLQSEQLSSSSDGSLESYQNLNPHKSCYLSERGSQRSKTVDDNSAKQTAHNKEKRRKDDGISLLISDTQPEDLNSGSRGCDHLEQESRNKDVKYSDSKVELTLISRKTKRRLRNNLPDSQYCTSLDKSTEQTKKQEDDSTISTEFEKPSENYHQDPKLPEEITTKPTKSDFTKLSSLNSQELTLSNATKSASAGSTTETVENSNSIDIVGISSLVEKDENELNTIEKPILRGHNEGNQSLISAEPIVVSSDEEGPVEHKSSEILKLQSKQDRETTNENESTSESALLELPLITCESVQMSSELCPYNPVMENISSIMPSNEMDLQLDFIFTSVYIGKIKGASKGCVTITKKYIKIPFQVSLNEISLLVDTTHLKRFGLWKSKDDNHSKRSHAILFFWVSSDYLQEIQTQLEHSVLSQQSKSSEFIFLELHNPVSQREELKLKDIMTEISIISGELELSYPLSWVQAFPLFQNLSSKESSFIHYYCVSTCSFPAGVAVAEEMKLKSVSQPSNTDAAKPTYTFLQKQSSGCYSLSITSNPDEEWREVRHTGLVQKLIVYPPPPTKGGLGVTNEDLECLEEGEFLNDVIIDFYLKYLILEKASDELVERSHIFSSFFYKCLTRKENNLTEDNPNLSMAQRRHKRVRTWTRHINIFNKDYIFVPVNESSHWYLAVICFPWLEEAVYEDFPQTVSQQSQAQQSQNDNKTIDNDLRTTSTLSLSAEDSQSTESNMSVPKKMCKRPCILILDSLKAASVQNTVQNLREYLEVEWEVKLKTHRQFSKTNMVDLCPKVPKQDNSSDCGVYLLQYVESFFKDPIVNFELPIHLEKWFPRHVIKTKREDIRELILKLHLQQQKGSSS

[10] = molecular target: T5, Sentrin-specific protease 6 (Homo sapiens, UniProt Q9GZR1); assay type: functional
T5 sequence (Q9GZR1 whole entry): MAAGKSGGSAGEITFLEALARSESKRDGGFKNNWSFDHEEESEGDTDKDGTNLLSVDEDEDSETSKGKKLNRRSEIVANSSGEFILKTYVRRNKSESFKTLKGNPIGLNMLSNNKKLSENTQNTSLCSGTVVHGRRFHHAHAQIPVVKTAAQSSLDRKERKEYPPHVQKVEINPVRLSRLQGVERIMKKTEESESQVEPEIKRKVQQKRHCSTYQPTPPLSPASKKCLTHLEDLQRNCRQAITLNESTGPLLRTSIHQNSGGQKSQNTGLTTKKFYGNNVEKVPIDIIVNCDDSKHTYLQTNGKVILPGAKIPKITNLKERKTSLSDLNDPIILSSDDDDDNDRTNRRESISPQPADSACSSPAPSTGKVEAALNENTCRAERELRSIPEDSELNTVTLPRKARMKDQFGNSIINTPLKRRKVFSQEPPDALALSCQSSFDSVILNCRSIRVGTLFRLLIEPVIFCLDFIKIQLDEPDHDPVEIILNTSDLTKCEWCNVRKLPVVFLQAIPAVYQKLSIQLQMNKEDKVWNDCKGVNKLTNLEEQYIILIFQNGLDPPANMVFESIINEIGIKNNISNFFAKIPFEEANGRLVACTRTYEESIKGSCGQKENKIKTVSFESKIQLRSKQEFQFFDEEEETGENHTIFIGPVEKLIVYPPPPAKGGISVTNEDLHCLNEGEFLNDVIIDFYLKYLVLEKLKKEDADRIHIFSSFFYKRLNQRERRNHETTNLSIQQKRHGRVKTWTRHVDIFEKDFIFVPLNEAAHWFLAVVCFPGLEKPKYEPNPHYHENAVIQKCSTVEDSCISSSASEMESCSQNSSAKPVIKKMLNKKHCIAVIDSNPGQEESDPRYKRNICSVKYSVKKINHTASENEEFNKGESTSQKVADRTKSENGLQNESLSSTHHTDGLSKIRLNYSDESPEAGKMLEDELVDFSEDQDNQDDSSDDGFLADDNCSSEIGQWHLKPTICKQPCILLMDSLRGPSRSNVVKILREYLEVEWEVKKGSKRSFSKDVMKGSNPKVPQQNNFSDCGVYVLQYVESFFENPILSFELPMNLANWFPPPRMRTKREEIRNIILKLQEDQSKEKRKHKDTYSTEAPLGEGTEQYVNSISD

[11] = molecular target: T6, Sentrin-specific protease 8 (Homo sapiens, UniProt Q96LD8); assay type: functional;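 also: luminescence read-out of SENP8 inhibition, dose-response confirmation following an ultra-high-throughput screen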
T6 sequence (Q96LD8 whole entry): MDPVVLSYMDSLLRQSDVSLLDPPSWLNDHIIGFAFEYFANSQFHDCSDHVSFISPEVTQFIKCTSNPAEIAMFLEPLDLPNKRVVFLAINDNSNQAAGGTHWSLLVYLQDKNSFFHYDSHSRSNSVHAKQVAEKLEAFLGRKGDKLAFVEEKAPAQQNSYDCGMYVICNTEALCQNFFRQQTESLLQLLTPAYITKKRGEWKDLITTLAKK

[12] = molecular target: T6, Sentrin-specific protease 8; assay: inhibition of human SENP8 cleavage activity – biochemical, luminescence, SAR follow-up (AID 504501); assay type: functional
[13] = molecular target: T3, Caspase-3; assay: SAR Analysis of small molecule inhibitors of Sentrin-specific proteases (SENPs) using a Caspase-3 Selectivity assay. [Related pubchem assays (depositor defined):AID2540, AID2599, AID434973, AID489001]; assay type: functional
[14] = molecular target: T5, Sentrin-specific protease 6; assay: SAR Analysis of small molecule inhibitors of Sentrin-specific protease 6 (SENP6) using a Luminescent assay. [Related pubchem assays (depositor defined):AID2582, AID2599]; assay type: functional
[15] = molecular target: T4, Sentrin-specific protease 7; assay: inhibition of human SENP7 cleavage activity – biochemical, luminescence, SAR follow-up (AID 504497); assay type: functional

Structure (SMILES) | EC50 [1] | EC50 [2] | IC50 [3] | EC50 [4] | EC50 [5] | EC50 [6] | EC50 [7] | IC50 [8] | IC50 [9] | IC50 [10] | IC50 [11] | IC50 [12] | IC50 [13] | IC50 [14] | IC50 [15]
Cc1ccc2nc(N(CCCN(C)C)C(=O)COc3ccc(Cl)cc3)sc2c1 | > 54.7 µM (inactive) | > 54.7 µM (inactive) | 46.4 µM (inactive) | > 54.7 µM (inactive) |  |  |  |  |  |  |  |  |  |  | 
CC(=O)N(/N=C1\Sc2ccccc2C1=O)c1ccc(C)cc1C |  |  |  |  | < 0.2 µM (active) | < 0.16 µM (active) | > 50 µM (not active) | 33 µM (active) | 21.5 µM (active) | 7.1 µM (active) | 86.8 µM (active) | 13 µM (active) | 7.42 µM (active) | 5.49 µM (active) | 23.3 µM (active)
